From ChEMBL document CHEMBL4371004, “A-C Estrogens as Potent and Selective Estrogen Receptor-Beta Agonists (SERBAs) to Enhance Memory Consolidation under Low-Estrogen Conditions” (J Med Chem, 2018) come the findings set out here.

For assay [1], the system named is Mus musculus. The experiment in a line: Memory enhancement effect in C57BL/6 mouse assessed as time spent with novel object at 5 mg/kg, po administered via gavage by novel object recognition test. It is filed as functional.
Assay [2] deals with Mus musculus. In words: Memory enhancement effect in C57BL/6 mouse assessed as time spent with moved object at 10 pg administered as dorsal hippocampal infusion by novel object recognition test. The format is functional.
For assay [3], the system named is Mus musculus. In words: Memory enhancement effect in C57BL/6 mouse assessed as time spent with moved object at 1 ng administered as dorsal hippocampal infusion by novel object recognition test. The format is functional.
The subject of assay [4] is Mus musculus. In words: Memory enhancement effect in C57BL/6 mouse assessed as time spent with moved object at 100 pg administered as dorsal hippocampal infusion by novel object recognition test. It is filed as functional.
Assay [5] has as its target T1, Mineralocorticoid receptor (Homo sapiens) (UniProt P08235).
T1 sequence (whole entry): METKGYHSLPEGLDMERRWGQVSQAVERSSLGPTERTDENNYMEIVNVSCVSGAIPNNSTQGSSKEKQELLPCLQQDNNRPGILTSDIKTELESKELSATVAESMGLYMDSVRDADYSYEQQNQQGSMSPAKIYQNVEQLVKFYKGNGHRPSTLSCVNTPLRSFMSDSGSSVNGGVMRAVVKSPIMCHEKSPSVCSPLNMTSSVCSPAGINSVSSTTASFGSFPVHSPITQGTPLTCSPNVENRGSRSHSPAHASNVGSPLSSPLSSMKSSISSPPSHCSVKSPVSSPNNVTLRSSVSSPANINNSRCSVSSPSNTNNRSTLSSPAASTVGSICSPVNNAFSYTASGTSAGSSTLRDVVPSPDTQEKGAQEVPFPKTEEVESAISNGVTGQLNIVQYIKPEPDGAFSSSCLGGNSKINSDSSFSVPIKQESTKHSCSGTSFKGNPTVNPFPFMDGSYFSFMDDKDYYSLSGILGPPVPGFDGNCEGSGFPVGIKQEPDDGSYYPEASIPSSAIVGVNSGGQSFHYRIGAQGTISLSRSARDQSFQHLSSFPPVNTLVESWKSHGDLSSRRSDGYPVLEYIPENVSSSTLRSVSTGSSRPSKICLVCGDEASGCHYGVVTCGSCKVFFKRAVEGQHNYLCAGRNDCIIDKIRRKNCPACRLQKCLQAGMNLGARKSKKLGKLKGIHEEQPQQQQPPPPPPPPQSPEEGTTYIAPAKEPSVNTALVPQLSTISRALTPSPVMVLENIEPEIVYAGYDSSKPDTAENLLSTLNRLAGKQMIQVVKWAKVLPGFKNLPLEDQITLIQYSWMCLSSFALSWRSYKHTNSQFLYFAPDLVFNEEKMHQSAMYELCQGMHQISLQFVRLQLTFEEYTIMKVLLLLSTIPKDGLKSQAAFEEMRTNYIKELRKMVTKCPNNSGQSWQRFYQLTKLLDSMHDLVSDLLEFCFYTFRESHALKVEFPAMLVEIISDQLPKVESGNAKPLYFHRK
In words: Agonist activity at GAL4 DNA binding domain fused mineralocorticoid receptor ligand binding domain (unknown origin) at 0.25 to 25 uM by FRET-based assay.

In assay [6] the target is T2, Glucocorticoid receptor (Homo sapiens) (UniProt P04150).
T2 sequence (whole entry): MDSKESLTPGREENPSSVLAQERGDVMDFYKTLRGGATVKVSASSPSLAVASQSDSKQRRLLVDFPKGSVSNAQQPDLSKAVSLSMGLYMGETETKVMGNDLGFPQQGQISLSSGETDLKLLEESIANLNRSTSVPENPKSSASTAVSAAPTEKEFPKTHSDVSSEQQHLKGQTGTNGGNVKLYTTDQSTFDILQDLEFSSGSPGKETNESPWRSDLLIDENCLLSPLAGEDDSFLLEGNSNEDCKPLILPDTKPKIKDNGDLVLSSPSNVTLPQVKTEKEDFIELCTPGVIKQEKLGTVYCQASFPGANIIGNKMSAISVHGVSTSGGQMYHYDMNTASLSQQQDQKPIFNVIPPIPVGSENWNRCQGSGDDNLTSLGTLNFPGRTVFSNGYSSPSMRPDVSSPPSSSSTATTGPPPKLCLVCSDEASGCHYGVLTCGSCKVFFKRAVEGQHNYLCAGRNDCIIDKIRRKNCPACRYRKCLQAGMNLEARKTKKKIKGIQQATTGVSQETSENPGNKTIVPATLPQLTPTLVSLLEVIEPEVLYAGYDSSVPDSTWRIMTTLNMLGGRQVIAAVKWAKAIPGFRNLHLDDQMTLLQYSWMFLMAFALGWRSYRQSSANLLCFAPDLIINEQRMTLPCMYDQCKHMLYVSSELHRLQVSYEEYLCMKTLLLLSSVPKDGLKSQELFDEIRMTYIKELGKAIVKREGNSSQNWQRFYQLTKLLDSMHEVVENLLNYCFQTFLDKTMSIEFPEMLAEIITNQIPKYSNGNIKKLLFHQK
In words: Agonist activity at GAL4 DNA binding domain fused glucocorticoid receptor ligand binding domain (unknown origin) at 0.25 to 25 uM by FRET-based assay.

Assay [7] has as its target T3, Androgen receptor (Homo sapiens) (UniProt P10275).
T3 sequence (whole entry): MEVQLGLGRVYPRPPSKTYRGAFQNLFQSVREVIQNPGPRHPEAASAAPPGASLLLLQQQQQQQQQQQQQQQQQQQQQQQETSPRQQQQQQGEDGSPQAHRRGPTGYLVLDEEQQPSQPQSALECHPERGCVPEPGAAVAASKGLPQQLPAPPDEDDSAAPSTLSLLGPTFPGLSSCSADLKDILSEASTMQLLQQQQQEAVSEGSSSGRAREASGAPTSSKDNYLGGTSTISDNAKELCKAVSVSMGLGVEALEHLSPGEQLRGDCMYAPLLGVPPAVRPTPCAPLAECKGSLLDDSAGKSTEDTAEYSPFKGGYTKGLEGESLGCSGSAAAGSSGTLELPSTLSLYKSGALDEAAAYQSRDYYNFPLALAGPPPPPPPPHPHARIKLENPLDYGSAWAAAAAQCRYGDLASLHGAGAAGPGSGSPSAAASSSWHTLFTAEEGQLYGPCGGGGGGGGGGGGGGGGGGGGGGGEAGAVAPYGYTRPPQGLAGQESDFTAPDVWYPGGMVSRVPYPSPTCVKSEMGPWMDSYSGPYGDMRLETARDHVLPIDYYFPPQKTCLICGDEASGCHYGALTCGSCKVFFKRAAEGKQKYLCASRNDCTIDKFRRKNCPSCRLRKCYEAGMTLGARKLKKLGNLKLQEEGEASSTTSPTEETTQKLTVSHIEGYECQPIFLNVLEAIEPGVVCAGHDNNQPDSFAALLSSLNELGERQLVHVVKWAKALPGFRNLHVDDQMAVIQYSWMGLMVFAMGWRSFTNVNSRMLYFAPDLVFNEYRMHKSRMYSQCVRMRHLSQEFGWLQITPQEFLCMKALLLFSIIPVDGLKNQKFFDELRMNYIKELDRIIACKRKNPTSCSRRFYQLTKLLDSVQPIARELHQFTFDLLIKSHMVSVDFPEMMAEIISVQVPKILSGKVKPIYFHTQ
The experiment in a line: Agonist activity at GAL4 DNA binding domain fused androgen receptor ligand binding domain (unknown origin) at 0.25 to 25 uM by FRET-based assay.

SMILES strings stand for the structures. Activity calls are given as the source filed them. The calls are words filed in the database; no cut-off is given here.

With `OC[C@H]1CC[C@H](c2ccc(O)cc2)CC1`, the Time with Mus musculus [1] was 2.36 s; in the assay on Mus musculus [2], 1.19 s; in the assay with Mus musculus [3], 3.4 s; in the assay with Mus musculus [4], 10.3 s. In addition, the result in assay [5], in assay [6] and in assay [7] was inactive.
